The results in this text go back to ChEMBL document CHEMBL5212743, “Selectivity Literature for EUbOPEN Chemogenomics Library wave 3” (2023).

Assay [1] has as its target Casein kinase II subunit alpha' (Homo sapiens) (UniProt P19784). The experiment in a line: Selectivity interaction (KinomeScan (DiscoverX)) EUB0000702a CSNK2A2. The conditions noted are these: at 1 µM.
In assay [2] the test system is Leucine-rich repeat serine/threonine-protein kinase 2 (Homo sapiens), Q5S007 [G2019S]. The experiment in a line: Selectivity interaction (KinomeScan (DiscoverX)) EUB0000702a LRRK2. The conditions noted are these: at 1 µM.
Leucine-rich repeat serine/threonine-protein kinase 2 (Homo sapiens), Q5S007 [G2019S], sequence (Q5S007 whole entry G2019S): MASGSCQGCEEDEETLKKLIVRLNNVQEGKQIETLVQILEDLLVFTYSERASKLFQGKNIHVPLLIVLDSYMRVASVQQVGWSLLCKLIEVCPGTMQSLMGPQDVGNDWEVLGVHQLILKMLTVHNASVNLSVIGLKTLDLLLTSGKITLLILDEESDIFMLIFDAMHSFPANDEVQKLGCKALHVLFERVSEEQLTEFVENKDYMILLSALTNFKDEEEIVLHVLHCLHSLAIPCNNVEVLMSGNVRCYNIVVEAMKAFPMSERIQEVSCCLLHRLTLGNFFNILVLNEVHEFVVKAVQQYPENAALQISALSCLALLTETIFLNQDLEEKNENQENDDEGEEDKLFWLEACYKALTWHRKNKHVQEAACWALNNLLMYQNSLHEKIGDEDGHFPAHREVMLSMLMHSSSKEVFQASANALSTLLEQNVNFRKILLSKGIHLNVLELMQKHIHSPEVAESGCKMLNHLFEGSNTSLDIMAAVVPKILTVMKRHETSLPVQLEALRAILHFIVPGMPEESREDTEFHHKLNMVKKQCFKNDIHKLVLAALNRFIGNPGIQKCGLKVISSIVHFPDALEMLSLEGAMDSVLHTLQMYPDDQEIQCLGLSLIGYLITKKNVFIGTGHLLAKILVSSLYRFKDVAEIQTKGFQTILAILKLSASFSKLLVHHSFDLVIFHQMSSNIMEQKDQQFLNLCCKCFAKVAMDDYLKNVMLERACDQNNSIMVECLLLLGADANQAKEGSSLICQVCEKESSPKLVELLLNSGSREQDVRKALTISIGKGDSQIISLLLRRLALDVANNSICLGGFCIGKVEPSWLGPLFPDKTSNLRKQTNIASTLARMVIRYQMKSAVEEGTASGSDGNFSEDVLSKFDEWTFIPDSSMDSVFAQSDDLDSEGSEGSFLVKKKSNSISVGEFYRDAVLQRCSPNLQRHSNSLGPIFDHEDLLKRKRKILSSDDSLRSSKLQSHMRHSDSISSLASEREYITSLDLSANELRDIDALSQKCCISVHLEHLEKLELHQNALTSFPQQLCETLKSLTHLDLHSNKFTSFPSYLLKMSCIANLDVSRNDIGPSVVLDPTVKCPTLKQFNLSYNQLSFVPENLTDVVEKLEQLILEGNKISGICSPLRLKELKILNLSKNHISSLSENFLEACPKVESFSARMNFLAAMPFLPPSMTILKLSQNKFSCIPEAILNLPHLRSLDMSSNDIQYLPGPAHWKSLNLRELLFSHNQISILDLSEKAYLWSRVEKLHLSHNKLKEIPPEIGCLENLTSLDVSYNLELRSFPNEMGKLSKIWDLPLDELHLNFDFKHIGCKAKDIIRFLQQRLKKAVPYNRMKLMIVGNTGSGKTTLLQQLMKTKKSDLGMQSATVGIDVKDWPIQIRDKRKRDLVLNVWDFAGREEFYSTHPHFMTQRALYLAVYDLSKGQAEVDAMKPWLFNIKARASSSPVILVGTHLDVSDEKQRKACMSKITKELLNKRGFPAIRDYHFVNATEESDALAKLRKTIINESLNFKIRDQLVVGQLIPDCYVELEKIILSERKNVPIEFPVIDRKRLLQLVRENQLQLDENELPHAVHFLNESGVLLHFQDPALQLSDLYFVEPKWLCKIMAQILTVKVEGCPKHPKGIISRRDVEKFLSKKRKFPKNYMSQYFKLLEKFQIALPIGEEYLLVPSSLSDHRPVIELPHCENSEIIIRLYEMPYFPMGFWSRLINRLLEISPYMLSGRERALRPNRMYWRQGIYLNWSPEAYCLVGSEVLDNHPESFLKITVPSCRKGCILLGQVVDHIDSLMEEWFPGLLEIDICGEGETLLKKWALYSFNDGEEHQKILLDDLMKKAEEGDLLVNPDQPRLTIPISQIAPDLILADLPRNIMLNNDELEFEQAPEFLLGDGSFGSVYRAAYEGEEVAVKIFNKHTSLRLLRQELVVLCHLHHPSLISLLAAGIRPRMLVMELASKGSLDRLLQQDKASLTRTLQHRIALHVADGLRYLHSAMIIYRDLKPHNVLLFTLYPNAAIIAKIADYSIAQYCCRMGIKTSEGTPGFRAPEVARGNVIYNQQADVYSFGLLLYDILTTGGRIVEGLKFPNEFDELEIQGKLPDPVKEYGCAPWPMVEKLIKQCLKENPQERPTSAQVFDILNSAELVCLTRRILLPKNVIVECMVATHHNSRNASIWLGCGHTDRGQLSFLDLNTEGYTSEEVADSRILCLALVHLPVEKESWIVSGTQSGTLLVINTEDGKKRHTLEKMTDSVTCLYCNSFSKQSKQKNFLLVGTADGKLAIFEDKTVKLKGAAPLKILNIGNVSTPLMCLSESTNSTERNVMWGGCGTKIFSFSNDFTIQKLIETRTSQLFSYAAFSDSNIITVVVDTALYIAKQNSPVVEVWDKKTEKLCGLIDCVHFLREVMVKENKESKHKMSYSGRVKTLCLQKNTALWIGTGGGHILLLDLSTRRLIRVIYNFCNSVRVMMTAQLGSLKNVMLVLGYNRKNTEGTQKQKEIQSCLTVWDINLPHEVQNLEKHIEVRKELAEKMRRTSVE
Assay [3] deals with Tyrosine-protein kinase ABL1 (Homo sapiens, UniProt P00519, T315I). The experiment in a line: Selectivity interaction (Enzymatic assay) EUB0000178b ABL1.
For assay [4], the target named is Phosphatidylinositol 4-phosphate 5-kinase type-1 gamma (Homo sapiens) (UniProt O60331). The experiment in a line: Selectivity interaction (KinomeScan (DiscoverX)) EUB0000178b PIP5K1C. As to conditions: at 1 µM.
Assay [5] concerns the target T1, Aurora kinase C (Homo sapiens) (UniProt Q9UQB9).
T1 sequence (whole entry): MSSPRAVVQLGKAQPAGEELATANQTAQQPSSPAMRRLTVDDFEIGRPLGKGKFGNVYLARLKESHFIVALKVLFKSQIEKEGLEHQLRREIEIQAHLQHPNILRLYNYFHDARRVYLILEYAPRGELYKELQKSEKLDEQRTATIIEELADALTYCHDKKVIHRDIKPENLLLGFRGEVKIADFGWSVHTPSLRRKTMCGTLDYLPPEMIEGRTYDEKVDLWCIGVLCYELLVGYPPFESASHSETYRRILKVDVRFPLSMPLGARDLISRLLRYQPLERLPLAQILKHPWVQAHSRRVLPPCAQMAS
The conditions noted are these: at 1 µM.

The target of assay [6] is Tyrosine-protein kinase HCK (Homo sapiens, UniProt P08631). The conditions noted are these: at 1 µM.
Tyrosine-protein kinase HCK, sequence (P08631 whole entry, looked up): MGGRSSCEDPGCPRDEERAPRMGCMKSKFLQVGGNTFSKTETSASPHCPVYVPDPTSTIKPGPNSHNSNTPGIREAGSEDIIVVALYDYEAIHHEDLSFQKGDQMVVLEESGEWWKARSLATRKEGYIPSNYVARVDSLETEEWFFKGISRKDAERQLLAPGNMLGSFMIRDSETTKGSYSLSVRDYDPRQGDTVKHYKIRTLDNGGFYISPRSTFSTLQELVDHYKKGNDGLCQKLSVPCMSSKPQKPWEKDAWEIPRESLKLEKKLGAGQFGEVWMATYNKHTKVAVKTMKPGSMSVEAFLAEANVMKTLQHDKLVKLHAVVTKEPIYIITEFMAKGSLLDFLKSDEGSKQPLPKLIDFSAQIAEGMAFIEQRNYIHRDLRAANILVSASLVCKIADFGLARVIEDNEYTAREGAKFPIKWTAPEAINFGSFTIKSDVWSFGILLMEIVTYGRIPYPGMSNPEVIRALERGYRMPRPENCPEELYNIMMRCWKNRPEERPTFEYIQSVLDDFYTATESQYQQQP
In assay [7] the target is T2, Dual specificity mitogen-activated protein kinase kinase 5 (Homo sapiens, UniProt Q13163).
T2 sequence (Q13163 whole entry): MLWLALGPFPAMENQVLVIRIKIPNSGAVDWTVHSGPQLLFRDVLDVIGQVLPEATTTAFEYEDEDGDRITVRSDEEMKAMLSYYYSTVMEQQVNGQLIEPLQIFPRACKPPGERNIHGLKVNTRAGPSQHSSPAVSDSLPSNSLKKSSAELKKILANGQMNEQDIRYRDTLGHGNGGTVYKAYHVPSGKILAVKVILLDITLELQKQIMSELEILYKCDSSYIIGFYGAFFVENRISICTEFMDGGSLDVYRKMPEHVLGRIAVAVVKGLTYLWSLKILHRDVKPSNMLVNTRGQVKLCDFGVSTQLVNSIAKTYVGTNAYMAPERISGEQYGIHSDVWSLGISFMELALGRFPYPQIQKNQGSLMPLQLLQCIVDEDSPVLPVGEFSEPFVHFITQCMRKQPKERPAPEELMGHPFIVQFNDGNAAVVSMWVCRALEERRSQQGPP
The experiment in a line: Selectivity interaction (NanoBRET assay (HEK293T cells)) EUB0000305b MAP2K5. (In general: Bioluminescence resonance energy transfer reports proximity on the nanometre scale.)

The target of assay [8] is Receptor-type tyrosine-protein kinase FLT3 (Homo sapiens, UniProt P36888). The experiment in a line: Selectivity interaction (NanoBRET assay (HEK293T cells)) EUB0000305b FLT3.
Assay [9] deals with T3, Phosphatidylinositol 5-phosphate 4-kinase type-2 beta (Homo sapiens) (UniProt P78356).
T3 sequence (whole entry): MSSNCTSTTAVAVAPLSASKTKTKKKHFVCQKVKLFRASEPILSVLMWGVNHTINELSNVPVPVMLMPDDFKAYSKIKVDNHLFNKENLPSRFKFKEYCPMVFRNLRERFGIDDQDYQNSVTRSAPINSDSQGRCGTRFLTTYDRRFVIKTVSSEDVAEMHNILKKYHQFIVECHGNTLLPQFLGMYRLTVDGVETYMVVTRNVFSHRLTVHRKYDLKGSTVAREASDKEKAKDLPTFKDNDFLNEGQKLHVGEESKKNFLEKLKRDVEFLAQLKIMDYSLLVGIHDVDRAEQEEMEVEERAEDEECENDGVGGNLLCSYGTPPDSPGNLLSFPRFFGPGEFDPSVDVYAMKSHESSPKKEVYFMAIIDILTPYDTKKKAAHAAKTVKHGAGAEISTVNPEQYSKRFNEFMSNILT
The experiment in a line: Selectivity interaction (KinomeScan (DiscoverX)) EUB0000698a PIP4K2B. As to conditions: at 10 µM.

Assay [10] deals with Calcium/calmodulin-dependent protein kinase kinase 2 (Homo sapiens) (UniProt Q96RR4). The experiment in a line: Selectivity interaction (KinomeScan (DiscoverX)) EUB0000169b CAMKK2. The conditions noted are these: at 1 µM.
The target of assay [11] is Ribosomal protein S6 kinase alpha-4 (Homo sapiens) (UniProt O75676). The experiment in a line: Selectivity interaction (KinomeScan (DiscoverX)) EUB0000169b RPS6KA4. The conditions noted are these: at 1 µM.
Ribosomal protein S6 kinase alpha-4 (Homo sapiens), sequence (O75676 whole entry, looked up): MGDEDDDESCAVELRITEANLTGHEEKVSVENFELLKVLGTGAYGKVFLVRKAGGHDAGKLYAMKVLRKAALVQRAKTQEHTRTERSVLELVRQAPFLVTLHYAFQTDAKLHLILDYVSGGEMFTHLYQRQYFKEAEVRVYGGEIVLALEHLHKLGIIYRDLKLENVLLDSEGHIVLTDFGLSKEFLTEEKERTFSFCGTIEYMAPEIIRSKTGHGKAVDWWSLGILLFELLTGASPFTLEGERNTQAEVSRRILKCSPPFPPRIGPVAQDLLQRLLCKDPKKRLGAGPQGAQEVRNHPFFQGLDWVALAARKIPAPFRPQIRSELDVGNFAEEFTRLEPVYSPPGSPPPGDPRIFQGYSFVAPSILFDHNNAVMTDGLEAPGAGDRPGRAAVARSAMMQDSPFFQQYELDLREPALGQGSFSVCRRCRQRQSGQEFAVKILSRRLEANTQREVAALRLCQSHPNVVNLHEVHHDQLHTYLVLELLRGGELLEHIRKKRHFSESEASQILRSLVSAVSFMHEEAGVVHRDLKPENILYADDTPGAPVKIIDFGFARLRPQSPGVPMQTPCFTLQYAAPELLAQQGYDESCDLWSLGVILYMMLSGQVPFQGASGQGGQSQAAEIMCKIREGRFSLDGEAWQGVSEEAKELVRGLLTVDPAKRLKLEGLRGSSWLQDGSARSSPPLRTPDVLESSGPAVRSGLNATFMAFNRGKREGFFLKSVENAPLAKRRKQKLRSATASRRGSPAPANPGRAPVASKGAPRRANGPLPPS
In assay [12] the target is Ribosomal protein S6 kinase beta-1 (Homo sapiens) (UniProt P23443). The conditions noted are these: at 10 µM.
Ribosomal protein S6 kinase beta-1 (Homo sapiens), sequence (P23443 whole entry, looked up): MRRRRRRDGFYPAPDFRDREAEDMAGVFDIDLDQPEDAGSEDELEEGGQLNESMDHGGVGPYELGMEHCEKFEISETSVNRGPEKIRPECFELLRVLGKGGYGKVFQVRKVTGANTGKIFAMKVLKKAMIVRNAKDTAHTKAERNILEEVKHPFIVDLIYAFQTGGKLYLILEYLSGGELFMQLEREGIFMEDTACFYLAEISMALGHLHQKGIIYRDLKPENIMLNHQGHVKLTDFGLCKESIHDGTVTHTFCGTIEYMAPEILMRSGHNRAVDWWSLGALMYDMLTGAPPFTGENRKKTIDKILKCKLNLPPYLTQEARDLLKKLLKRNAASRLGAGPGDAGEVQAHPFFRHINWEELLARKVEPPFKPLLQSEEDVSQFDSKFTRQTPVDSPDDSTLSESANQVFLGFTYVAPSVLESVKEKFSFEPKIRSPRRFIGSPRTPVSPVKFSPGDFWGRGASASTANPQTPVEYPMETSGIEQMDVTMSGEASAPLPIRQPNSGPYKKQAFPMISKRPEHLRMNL

What is called IC50 is the midpoint of a concentration-inhibition curve. The low end stands for inhibition by little substance, the high end for a need for much substance.

Some results are limits rather than exact numbers.

Casein kinase II subunit alpha' (Homo sapiens), sequence (P19784 whole entry, looked up): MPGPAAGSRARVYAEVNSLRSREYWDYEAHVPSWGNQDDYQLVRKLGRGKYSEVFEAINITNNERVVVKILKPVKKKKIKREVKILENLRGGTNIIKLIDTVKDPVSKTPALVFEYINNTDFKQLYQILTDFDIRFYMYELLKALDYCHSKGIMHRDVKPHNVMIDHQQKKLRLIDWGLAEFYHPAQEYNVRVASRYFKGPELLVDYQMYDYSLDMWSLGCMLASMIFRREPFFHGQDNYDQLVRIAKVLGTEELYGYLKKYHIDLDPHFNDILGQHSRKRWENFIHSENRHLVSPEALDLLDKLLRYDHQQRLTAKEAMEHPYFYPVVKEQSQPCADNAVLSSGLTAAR

`CN(c1ccnc(CNc2nc(Nc3ccc4c(c3)CC(=O)N4)ncc2C(F)(F)F)n1)S(C)(=O)=O` [PF-00911705]: the % of control in assay [1] came to 66.7%; in [2] it was 7.3%.
For the compound `CN1C(=O)c2sccc2N(C)c2nc(Nc3ccc(S(N)(=O)=O)cc3)ncc21`, the IC50 in assay [3] amounted to 0.0166 µM. The % of control in [4] stood at 10%.
For the compound `CCOc1cn(-c2ccc(F)cc2C)nc1C(=O)Nc1ccc(Oc2ccnc3cc(OC)c(OC)cc23)c(F)c1`, the % of control in [5] and in [6] was less than 10% throughout.
With `C[C@H](c1ccnc(Nc2nc3ccc(-c4cc(N(C)C)ncn4)cc3[nH]2)c1)N1CCN(C(=O)CC(F)(F)F)CC1` [BAY-985], the IC50 in assay [7] and in assay [8] was greater than 20 µM each time.
The compound `COc1cc2ncn(-c3cc(OCc4ccccc4C(F)(F)F)c(C(N)=O)s3)c2cc1OC` [GW843682X] had a % of control in assay [9] of 6.6%.
Take `CC[C@@H]1C(=O)N(C)c2cnc(Nc3ccc(C(=O)NC4CCN(C)CC4)cc3OC)nc2N1C1CCCC1`: the % of control turned out to be 3.4% in [10], 0.3% in assay [11] and 102% in assay [12].
